Measurements: patent US20140328795A1, “VIRUCIDAL SMALL MOLECULE AND USES THEREOF” (The Texas A&M University System, priority 2012, published 2014)
Like-named read-outs stand apart in the source and are kept apart here.

Columns and labels:
primary HIV-1 isolates = experiment: microbe, parasite or virus in culture; format: cell-based; conditions: Human immunodeficiency virus 1, TZM-bl
SIV = SIV infectivity assay in TZM-bl cells (β-galactosidase); format: cell-based; conditions: Simian immunodeficiency virus; for IC90: IC90 per footnote, read-out: IC50 (the source's name)
HIV-2 = HIV-2 infectivity assay in TZM-bl cells (β-galactosidase); format: cell-based; conditions: Human immunodeficiency virus 2, TZM-bl, PD in DMEM with 10% fetal bovine serum, IC90 per footnote, read-out: IC50 (the source's name)
Lactobacillus crispatus = experiment: Lactobacillus toxicity testing (CFU); format: cell-based; conditions: 37° C.
Description: (§1) Reference strains of L. crispatus and L. jensenii were obtained from the ATCC (Manassas, Va.) and cultured on Columbia blood agar plates at 35° C. in air enriched with 6% CO2. Bacterial suspensions were prepared in saline or ACES buffer to a density of 2 McFarland units (˜2×10^8 bacteria/mL), and exposed to PD (300 μM) or DMSO (10%) for 30 minutes at 37° C. After incubation, the cells were serially diluted in ACES buffer, pH 7.0 (Sigma-Aldrich, St. Louis, Mo.) and plated on blood agar plates to quantify colony forming unit per mL (CFU/mL)
(§2) Different bacterial strains were incubated with 300 μM PD or solvent DMSO-containing control media at 37° C. for 30 min and plated on blood agar plates to estimate their corresponding colony forming units per ml (CFU/ml). Less than 1 log difference between control and test CFU is considered non-toxic17.

Lactobacillus jensenii = experiment: Lactobacillus toxicity testing (CFU); format: cell-based; conditions: 37° C.
Description: as §1, §2

HCVcc = format: cell-based, HCV
[1] = test system: HIV-1 (X4 NL4.3) particles; conditions: 10 μM PD, 30 min, 37° C.; 20-70% sucrose gradient
VSV-Gpp = format: physicochemical; conditions: pH 7
HSV-1 (Syn 17) = format: cell-based; conditions: 2 μM and 0.2 μM PD
Description: (§3) FIGS. 16A-16B depict effectiveness of PD against HSV. PD blocks HSV infection. Vero cells were seeded in a 24-well plate and infected with HSV-1 (Syn 17) or HSV-2 (333) (FIG. 16A). PD (200 nM) or control DMSO (0.01%) was added immediately to the target cells after viral inoculation. Two days later, the cells were harvested, stained with antibody against HSV glycoprotein gD and analyzed by flow cytometry. Error bars represent standard deviation of triplicate samples. Results are representative of two independent experiments. PD Destabilizes HSV particles (FIG. 16B). Concentrated HSV (˜20 μg/mL) was incubated with DMSO (0.01%) or PD (200 nM) for 30 min at 37° C. and the mixture was immediately loaded over a 20-70% sucrose density gradient. The amount of HSV glycoprotein gpB in each fraction was analyzed by ELISA. The sucrose gradient density of each fraction was determined by measuring the refractive index. Results are representative of 2 independent experiments. Error bars represent the standard deviation of triplicate samples.
(§4) Vero cells (2×10^5 cells/well) were seeded in a 24 well plate. The next day, these cells were infected with increasing titers (MOI range 0.0001-1) of HSV-1 (Syn 17) or HSV-2 (333) in the presence of PD (2 μM and 200 nM) or control DMSO (0.01%) prepared in DMEM in the absence of serum. Two days post-inoculation, cells were harvested, fixed with 5% paraformaldehyde (PFA) in PBS, stained with antibodies against HSV glycoprotein gD (Novus biological, Littleton, Colo.) and analyzed by flow cytometry.
(§5) Applicants investigated the ability of PD to inactivate HSV-1 and -2. Vero cells were infected with HSV-1 and HSV-2 in the presence of PD (2 μM and 0.2 μM) or DMSO (0.01%). These concentrations were selected based on their closeness to the in vitro IC50 of PD against HIV-1. Infection was quantified by the cell surface expression of HSV gD. […] Similar results were obtained for both concentrations and the data from the lowest concentration is presented.

HSV-2 (333) = format: cell-based; conditions: 2 μM and 0.2 μM PD
Description: as §3, §4, §5

[2] = test system: freshly activated human PBMCs
[3] = SIVsyk1.2, PD in DMEM with 10% fetal bovine serum

SMILES: N=C1Sc2ccccc2C2=NCCCN12 [PD, PD 404,182]
- IC90 (primary HIV-1 isolates; HIV-1 92HT599 (clade B, X4), PD in DMEM with 10% fetal bovine serum, IC90 per footnote): 5.8 µM
- IC90 (primary HIV-1 isolates; HIV-1 92HT599 (clade B, X4), PD in cervical fluids, IC90 per footnote): 6.4 µM
- IC90 (primary HIV-1 isolates; HIV-1 92HT599 (clade B, X4), PD in seminal plasma, IC90 per footnote): 6.31 µM
- IC90 (primary HIV-1 isolates; HIV-1 92RW021 (clade A, R5), PD in DMEM with 10% fetal bovine serum, IC90 per footnote): 3.8 µM
- IC90 (primary HIV-1 isolates; HIV-1 92RW021 (clade A, R5), PD in cervical fluids, IC90 per footnote): 4.4 µM
- IC90 (primary HIV-1 isolates; HIV-1 92TH003 (clade E, R5), PD in DMEM with 10% fetal bovine serum, IC90 per footnote): 8.6 µM
- IC90 (primary HIV-1 isolates; HIV-1 92TH003 (clade E, R5), PD in cervical fluids, IC90 per footnote): 7.8 µM
- IC90 (primary HIV-1 isolates; HIV-1 92TH003 (clade E, R5), PD in seminal plasma, IC90 per footnote): 6.73 µM
- IC90 (primary HIV-1 isolates; HIV-1 92TH029 (clade B, R5), PD in DMEM with 10% fetal bovine serum, IC90 per footnote): 2.8 µM
- IC90 (primary HIV-1 isolates; HIV-1 92TH029 (clade B, R5), PD in cervical fluids, IC90 per footnote): 3.3 µM
- IC90 (primary HIV-1 isolates; HIV-1 92TH029 (clade B, R5), PD in seminal plasma, IC90 per footnote): 2.95 µM
- IC50 (primary HIV-1 isolates; HIV-1 92UG024 (clade D, X4), PD in DMEM with 10% fetal bovine serum): 0.33 µM
- IC90 (primary HIV-1 isolates; HIV-1 92UG024 (clade D, X4), PD in DMEM with 10% fetal bovine serum, IC90 per footnote): 1.4 µM
- IC90 (primary HIV-1 isolates; HIV-1 92UG024 (clade D, X4), PD in cervical fluids, IC90 per footnote): 1.8 µM
- IC90 (primary HIV-1 isolates; HIV-1 92UG024 (clade D, X4), PD in seminal plasma, IC90 per footnote): 1.68 µM
- IC90 (primary HIV-1 isolates; HIV-1 92UG029 (clade A, X4), PD in DMEM with 10% fetal bovine serum, IC90 per footnote): 4.4 µM
- IC90 (primary HIV-1 isolates; HIV-1 92UG029 (clade A, X4), PD in cervical fluids, IC90 per footnote): 5.3 µM
- IC90 (primary HIV-1 isolates; HIV-1 92UQ085 (clade D, R5), PD in DMEM with 10% fetal bovine serum, IC90 per footnote): 5.3 µM
- IC90 (primary HIV-1 isolates; HIV-1 92UQ085 (clade D, R5), PD in cervical fluids, IC90 per footnote): 6.7 µM
- IC90 (primary HIV-1 isolates; HIV-1 92UQ085 (clade D, R5), PD in seminal plasma, IC90 per footnote): 6.67 µM
- IC90 (primary HIV-1 isolates; HIV-1 93BR020 (clade F, X4), PD in DMEM with 10% fetal bovine serum, IC90 per footnote): 6.8 µM
- IC90 (primary HIV-1 isolates; HIV-1 93BR020 (clade F, X4), PD in cervical fluids, IC90 per footnote): 7.6 µM
- IC90 (primary HIV-1 isolates; HIV-1 93BR020 (clade F, X4), PD in seminal plasma, IC90 per footnote): 7.19 µM
- IC90 (primary HIV-1 isolates; HIV-1 93BR028 (clade F, R5), PD in DMEM with 10% fetal bovine serum, IC90 per footnote): 3.6 µM
- IC90 (primary HIV-1 isolates; HIV-1 93BR028 (clade F, R5), PD in cervical fluids, IC90 per footnote): 4.6 µM
- IC90 (primary HIV-1 isolates; HIV-1 93BR028 (clade F, R5), PD in seminal plasma, IC90 per footnote): 3.72 µM
- IC90 (primary HIV-1 isolates; HIV-1 93IN101 (clade C, R5), PD in DMEM with 10% fetal bovine serum, IC90 per footnote): 5.1 µM
- IC90 (primary HIV-1 isolates; HIV-1 93IN101 (clade C, R5), PD in cervical fluids, IC90 per footnote): 5.6 µM
- IC90 (primary HIV-1 isolates; HIV-1 93IN101 (clade C, R5), PD in seminal plasma, IC90 per footnote): 5.38 µM
- IC90 (primary HIV-1 isolates; HIV-1 93TH083 (clade E, X4), PD in DMEM with 10% fetal bovine serum, IC90 per footnote): 6.3 µM
- IC90 (primary HIV-1 isolates; HIV-1 93TH083 (clade E, X4), PD in cervical fluids, IC90 per footnote): 6.4 µM
- IC90 (primary HIV-1 isolates; HIV-1 93TH083 (clade E, X4), PD in seminal plasma, IC90 per footnote): 6.66 µM
- IC90 (primary HIV-1 isolates; HIV-1 98IN017 (clade C, X4), PD in cervical fluids, IC90 per footnote): 2.4 µM
- IC90 (primary HIV-1 isolates; HIV-1 98IN017 (clade C, X4), PD in seminal plasma, IC90 per footnote): 2.09 µM
- IC90 (primary HIV-1 isolates; HIV-1 Jv1063 (clade G, R5), PD in DMEM with 10% fetal bovine serum, IC90 per footnote): 3.8 µM
- IC50 (primary HIV-1 isolates; HIV-1 RU132 (clade G, R5), PD in DMEM with 10% fetal bovine serum): 0.8 µM
- IC90 (primary HIV-1 isolates; HIV-1 RU132 (clade G, R5), PD in DMEM with 10% fetal bovine serum, IC90 per footnote): 3.1 µM
- IC90 (primary HIV-1 isolates; HIV-1 RU132 (clade G, R5), PD in cervical fluids, IC90 per footnote): 3.8 µM
- IC90 (primary HIV-1 isolates; HIV-1 RU132 (clade G, R5), PD in seminal plasma, IC90 per footnote): 3.26 µM
- IC50 (primary HIV-1 isolates; broad range of primary HIV-1 isolates as well as HIV-2): ~1 µM
- IC50 (primary HIV-1 isolates; read-out: IC50, range over the tested subtypes of HIV-1, PD in DMEM, TZM-bl): 0.33 to 1.8 µM
- IC50 (primary HIV-1 isolates; read-out: IC50, range over the tested subtypes of HIV-1, PD in cervical fluid, TZM-bl): 0.61 to 2.3 µM
- IC90 (primary HIV-1 isolates; read-out: IC90, range over the tested subtypes of HIV-1, PD in DMEM, TZM-bl): 1.4 to 6.6 µM
- IC90 (primary HIV-1 isolates; read-out: IC90, range over the tested subtypes of HIV-1, PD in cervical fluid, TZM-bl): 1.8 to 7.5 µM
- IC50 (primary HIV-1 isolates; several isolates of HIV-1 and SIV in TZM-bl cells, PD diluted in DMEM or cervical fluid): ~1 µM
- IC90 (SIV; SIVmoc251 32H, PD in DMEM with 10% fetal bovine serum): 6.2 µM
- IC50 (SIV; [3]): 1.8 µM
- IC90 (SIV; [3]): 5.4 µM
- IC90 (HIV-2; HIV-2OD 0310342): 4.7 µM
- IC90 (HIV-2; HIV-27312A): 6.6 µM
- CFU of Lactobacillus treated with 300 μM PD (Lactobacillus crispatus; Lactobacillus crispatus ATCC 33197, 30 min): 7,260,000 CFU/ml
- Log(Control)-Log(PD) (Lactobacillus crispatus; Lactobacillus crispatus ATCC 33197, 300 μM PD, 30 min): −0.019
- CFU of Lactobacillus treated with 300 μM PD (Lactobacillus jensenii; Lactobacillus jensenii ATCC 25258, 30 min): 7,533,333 CFU/ml
- CFU of Lactobacillus treated with 300 μM PD (Lactobacillus jensenii; Lactobacillus jensenii LBP 28Ab, 30 min): 10,033,333 CFU/ml
- Log(Control)-Log(PD) (Lactobacillus jensenii; Lactobacillus jensenii LBP 28Ab, 300 μM PD, 30 min): −0.021
- inhibition of virus infectivity (HCVcc): > 10 fold
- sedimentation of HIV-1 capsid and RT in sucrose gradient [1]: viral capsid and RT relocate to the top of the gradient
- long-term stability (VSV-Gpp): not stable
- effect on HSV-1 infection (HSV-1 (Syn 17); MOI 1): partial protection
- effect on HSV-1 infection (HSV-1 (Syn 17); MOI from 0.0001 to 0.1): inhibit both HSV-1 and HSV-2 infection
- effect on HSV-2 infection (HSV-2 (333); MOI 1): partial protection
- effect on HSV-2 infection (HSV-2 (333); MOI from 0.0001 to 0.1): inhibit both HSV-1 and HSV-2 infection
- reduction in cell viability [2]: 48%
